Columns and labels:
[1] = molecular target: T1, ASK1 T838 auto phosphorylation (Homo sapiens, UniProt Q99683); assay: ASK1 (AUTO PHOS T838) assay in HEK-293T cells, MSD format; assay type: cell-based; conditions: HEK-293T cells transfected with ASK1-V5, 1 hr compound incubation
T1 construct: ASK1-V5 tagged full length plasmid; expressed in transfected cells; host or cells: HEK-293T
T1 sequence (Q99683 1-1374): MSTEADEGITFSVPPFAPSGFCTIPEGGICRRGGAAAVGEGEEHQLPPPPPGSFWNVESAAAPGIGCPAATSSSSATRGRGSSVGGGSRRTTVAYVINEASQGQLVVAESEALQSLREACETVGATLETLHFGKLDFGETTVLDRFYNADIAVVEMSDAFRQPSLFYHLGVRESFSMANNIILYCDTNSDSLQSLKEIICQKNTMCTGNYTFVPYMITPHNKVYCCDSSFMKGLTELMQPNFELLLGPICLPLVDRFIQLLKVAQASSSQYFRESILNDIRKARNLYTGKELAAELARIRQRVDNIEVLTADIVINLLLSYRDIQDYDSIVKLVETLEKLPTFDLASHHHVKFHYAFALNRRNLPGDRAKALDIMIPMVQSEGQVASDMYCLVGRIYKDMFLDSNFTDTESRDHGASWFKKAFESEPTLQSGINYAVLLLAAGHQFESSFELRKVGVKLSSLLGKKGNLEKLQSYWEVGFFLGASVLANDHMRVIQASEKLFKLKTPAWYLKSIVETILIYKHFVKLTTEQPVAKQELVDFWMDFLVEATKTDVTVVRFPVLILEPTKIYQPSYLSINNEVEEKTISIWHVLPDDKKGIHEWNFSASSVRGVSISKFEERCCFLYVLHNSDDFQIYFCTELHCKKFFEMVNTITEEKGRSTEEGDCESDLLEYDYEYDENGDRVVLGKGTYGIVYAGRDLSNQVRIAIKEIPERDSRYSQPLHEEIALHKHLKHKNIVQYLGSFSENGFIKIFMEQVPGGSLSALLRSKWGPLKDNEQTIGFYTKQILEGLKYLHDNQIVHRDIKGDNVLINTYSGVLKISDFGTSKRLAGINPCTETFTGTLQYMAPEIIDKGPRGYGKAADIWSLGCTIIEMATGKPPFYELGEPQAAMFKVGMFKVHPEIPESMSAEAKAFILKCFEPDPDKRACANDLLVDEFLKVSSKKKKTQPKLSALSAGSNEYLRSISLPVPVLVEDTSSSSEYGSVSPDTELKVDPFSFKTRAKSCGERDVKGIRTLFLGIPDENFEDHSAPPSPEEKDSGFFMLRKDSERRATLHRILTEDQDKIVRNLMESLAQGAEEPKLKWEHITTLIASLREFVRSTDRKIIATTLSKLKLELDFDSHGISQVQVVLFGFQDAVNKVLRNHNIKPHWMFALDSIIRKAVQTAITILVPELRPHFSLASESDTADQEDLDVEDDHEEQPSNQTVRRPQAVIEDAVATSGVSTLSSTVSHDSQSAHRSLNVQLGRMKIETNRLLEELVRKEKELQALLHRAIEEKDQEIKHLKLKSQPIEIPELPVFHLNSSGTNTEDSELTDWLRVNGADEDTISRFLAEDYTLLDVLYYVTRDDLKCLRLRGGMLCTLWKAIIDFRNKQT
Procedure: ASK1 T838 auto phosphorylation was measured in HEK-293T cells using MSD assay format. HEK 293T cells were seeded in 15 cm plates at a density of 18 million cells and 20 mL DMEM with 10% FBS, Pen/Strep media. The plates were incubated at 37° C. overnight. Media on plates was changed to OPTI-MEM, serum free media and cells were transfected with 9 μg of ASK1-V5 tagged full length plasmid using Lipofectamine 2000 (Invitrogen) and the plates were incubated at 37° C. overnight. Cells were trypsinized, counted on Nexcellometer and plated into 96 well tissue culture plates with 100,000 cells/well and 200 μL media. Cells were incubated for 4 hr at 37° C. then ASK1 compounds were added using a HP 300e. Compounds were tested at 20 μM with 3 fold, 10 point dilution points then incubated for 1 hr at 37° C. A lysis buffer (Cell Signaling) was prepared with protease and phosphatase inhibitor and maintained at 4° C. until use. Media from cells was discarded and 120 μL of cold lysis buffer was added to the cells, the plate was shaken 4° C. for 1 hr. Lysate was mixed using Apricot liquid handler; aspirating up and down 16 times at high speed using 50 μL volume. 50 μL of cell lysates were transferred to a pre-coated MSD plates containing mouse anti-V5 antibody (1:500 dilution) and washed 3× with MSD wash buffer (TBST) and blocked with a 3% BSA solution. Plates were then incubated on a plate shaker overnight at 4° C. Plates were washed 3× with MSD wash buffer and 50 μL of rabbit anti-pASK1 T838 antibody was added to the wells and incubated for 2 hr at room temperature on a plate shaker. Plates were then washed and 50 μL of goat anti-rabbit sulfa-tag (1:500 dilution) was added to wells, and incubated for 1 hr at room temperature on a plate shaker. Plates were washed 3× and 150 μL of 2×MSD Read buffer was added to wells. Plates were immediately read on a MSD Instrument Reader where chemoluminecense signal was measured. Data was analyzed using Graph Pad or Genedata, the data was normalized and plotted, % activity versus log of compound concentration. The IC50 values were obtained from a 4 parameter fit.

[2] = In vivo brain penetration (rat Kpuu study); conditions: brain and plasma (unbound), IV infusion in the carotid artery for four hours, 1 mg/kg, steady state, Kpuu=Cu,b/Cu,p
Procedure: To evaluate the CNS penetration of the compounds described herein, several compounds were selected for in vivo rat Kpuu studies. In these experiments the compounds are administered via an IV infusion (using N,N-dimethylacetamide:ethanol:1,2-propylene glycol:water in a 1:1:3:5 ratio as the vehicle) in the carotid artery for a period of four hours (1 mg/kg, 0.1 mg/mL) to reach steady state. After this time the plasma and brain concentration levels are quantified, and the values are adjusted by the measured protein binding in plasma and brain homogenate to calculate the Kpuu (see Di, L.; Kerns, E. H. Blood-Brain Barrier in Drug Discovery (Wiley)) according to the equation below. Kpuu=Cu,b/Cu,p • Wherein: • Cu,b=Unbound concentration in brain (C×fu,b). (C=concentration at steady state; fu,b=fraction unbound in brain) • And in which: Cu,p=Unbound concentration in plasma (C×fu,p). (C=concentration at steady state; fu,p=fraction unbound in plasma)
Plasma and brain protein binding values were generated via the Rapid Equilibrium Dialysis method. The compound of interest was incubated in K2EDTA plasma and brain homogenate (homogenized 1:7 (w:v) in 1×PBS) purchased from BioIVT (Westbury, N.Y.), opposite a buffered compartment of 100 mM Potassium phosphate/150 mM Sodium chloride, pH 7.4, at 1 μM for 4 hr and 6 hr respectively. At the conclusion of incubation samples were taken from both matrix and buffered compartments, matrix-matched using blank buffer and matrix, extracted with acetonitrile, diluted with water, and analyzed utilizing an Agilent RapidFire 365 high-throughput LC coupled with MS/MS detection via an AB Sciex 5500. Free fractions (fu) were then calculated by comparing internal standard/analyte peak-area ratios of matrix and buffered compartments. Cross-species brain protein binding was considered to be equivalent for the purposes of calculating free fraction (see Di, L., et al., (2011a) Species Independence in Brain Tissue Binding Using Brain Homogenates, Drug Metab Dispos 39:1270-1277).
Total drug concentration in plasma and brain tissue was measured via well-established bioanalytical extraction (protein precipitation) and detection methods (LC-MS/MS). Brain tissues were homogenized 1:4 (w:v) with 1×PBS in MP Biomedicals Lysing Matrix D tubes via an MP Biomedicals FastPrep-24™ homogenizer and were then extracted alongside plasma samples by matrix-matching with blank K2EDTA plasma (purchased from BioIVT), followed by protein crash/extraction with acetonitrile, supernatant dry down under nitrogen, and reconstitution with an acidified aqueous/organic mixture before being measured against a calibration curve of the compound of interest prepared in plasma, matrix-matched with blank brain homogenate (generated with brains purchased from BioIVT), and similarly extracted. Reconstituted extracts were then analyzed via LC-MS/MS (AB Sciex 5500) utilizing a binary HPLC setup (Shimadzu LC-20ADvp) and reverse-phase chromatography gradient (ACE 3 C18-AR). Peak area ratios and a 1/x^2 regression fit were used to generate sample concentration values that, combined with plasma and brain protein binding values, were used to generate free drug concentration values and partitioning coefficient (Kpuu).

ASK1/MAP3K5 = molecular target: T2, ASK1/MAP3K5 (Homo sapiens, UniProt Q99683); assay: ASK1 enzyme assay (ASK1/MAP3K5 assay by Reaction Biology Corp., 33P-ATP filter-binding); assay type: biochemical; conditions: 20 μM myelin basic protein and 10 μM ATP; class symbols
T2 construct: purchased Reaction Biology Corp. (Malvern, Pa.)
T2 sequence (Q99683 1-1374): T1 sequence (Q99683 1-1374)
Procedure: The protein kinase inhibitory activity of the compounds described herein were tested using the ASK1/MAP3K5 assay by Reaction Biology Corp. (Malvern, Pa.). The assay procedure follows (and is also available on the Reaction Biology Corp. website). • Base Reaction Buffer: 20 mM Hepes (pH 7.5), 10 mM MgCl2, 1 mM EGTA, • 0.02% Brij35, 0.02 mg/mL BSA, 0.1 mM Na3VO4, 2 mM DTT, 1% DMSO; • Substrate: 20 μM of myelin basic protein (MBP) and 10 μM ATP; • Protein kinase: ASK1/MAP3K5. • Reaction Procedure: • 1. Prepare indicated substrate in freshly prepared Base Reaction Buffer. • 2. Deliver any required cofactors to the substrate solution. • 3. Deliver indicated kinase into the substrate solution and gently mix. • 4. Deliver compounds in DMSO into the kinase reaction mixture by Acoustic; technology (Echo550; nanoliter range), incubate for 20 minutes at room temperature. • 5. Deliver ^33P-ATP (specific activity 10 μCi/μL) into the reaction mixture to initiate the reaction. • 6. Incubate kinase reaction for 2 hours at room temperature. • 7. Reactions are spotted onto P81 ion exchange paper. • 8. Detect kinase activity by filter-binding method.

| SMILES | IC50 ([1]; class symbols) [nM] | Kp uu at 4 h [2] | IC50 (ASK1/MAP3K5) [nM] | IC50 [1] [nM] |
| --- | --- | --- | --- | --- |
| C[C@H]1CCCOc2ncc(N3CCN(C)CC3)cc2C(=O)Nc2cccc(n2)-c2nncn21 [Compound 10, (S)-10-Methyl-5^5-(4-methylpiperazin-1-yl)-1^4H-6-oxa-3-aza-2(2,6),5(3,2)-dipyridina-1(3,4)-triazolacyclodecaphan-4-one] | ≤ 100 | < 0.1 | – | – |
| Cc1ccc(-c2cnc3c(c2)C(=O)Nc2cccc(n2)-c2nncn2[C@@H](C)CCCO3)cn1 [Compound 19, (S)-10-Methyl-5^5-(6-methylpyridin-3-yl)-1^4H-6-oxa-3-aza-2(2,6),5(3,2)-dipyridina-1(3,4)-triazolacyclodecaphan-4-one] | ≤ 100 | < 0.1 | – | – |
| C[C@@H]1CN(c2cnc3c(c2)C(=O)Nc2cccc(n2)-c2nncn2[C@@H](C)CCCO3)C[C@@H](C)N1 [Compound 14, (S)-5^5-((3R,5R)-3,5-Dimethylpiperazin-1-yl)-10-methyl-1^4H-6-oxa-3-aza-2(2,6),5(3,2)-dipyridina-1(3,4)-triazolacyclodecaphan-4-one] | 100 to 1000 | – | ≤ 100 | – |
| C[C@@H]1CCCOc2ncccc2C(=O)Nc2cccc(n2)-c2nncn21 (single isomer, unassigned) [Compound 5] | – | – | 1000 to 10000 | ≥ 10000 |
| C[C@H]1CCCOc2ncc(-n3cnc(C4CC4)c3)cc2C(=O)Nc2cccc(n2)-c2nncn21 (single isomer, unassigned) [Compound 32] | ≤ 100 | – | ≤ 100 | – |
| C[C@H]1CCCOc2ncc(N3CCOCC3)cc2C(=O)Nc2cccc(n2)-c2nncn21 [Compound 7, (S)-10-Methyl-5^5-morpholino-1^4H-6-oxa-3-aza-2(2,6),5(3,2)-dipyridina-1(3,4)-triazolacyclodecaphan-4-one] | ≤ 100 | – | ≤ 100 | – |
